The test system of test [1] is Eimeria spp.oocysts. In words: Anticoccidiocidal activity, test A2 (oocyst count in faeces of infected chickens, medicated feed). The conditions noted are these: 22 birds in each group. In kind it is in vivo. The text has this:
A total of 88 one day old Habbared X breed chickens were used in the test. They were allocated into 4 groups (22 birds in each group), one group serving as a control group.
(§1) Each composition to be tested was mixed in a sufficient amount of feed for each group and was used for daily feeding from the day zero of the test. Fresh water was supplied ad-libetum.

Test [2] relates to Eimeria spp.oocysts. In words: Anticoccidiocidal activity, test A1 (oocyst count in faeces of infected chickens, medicated feed). In kind it is in vivo. The conditions noted are these: 23 birds in each group.
Source text: A total of 92 one day old Habbared X breed chickens were used in the test. They were allocated into 4 groups (23 birds in each group), one group serving as a control group.
as §1

Test [3] has as its system Eimeria spp.oocysts. Nature of the test: Anticoccidiocidal activity, test A3 (single components; oocyst count in faeces, Mc-Master technique). In kind it is in vivo, chickens. The note with it: 20 birds in each group; for Mean No. of Eimeria spp.oocysts/gram faeces/group, 5 d.p.i. / Mean No. of Eimeria spp.oocysts/gram faeces/group, 6 d.p.i. / Mean No. of Eimeria spp.oocysts/gram faeces/group, 7 d.p.i. / Mean No. of Eimeria spp.oocysts/gram faeces/group, 8 d.p.i. / Mean No. of Eimeria spp.oocysts/gram faeces/group, 9 d.p.i. / Mean No. of Eimeria spp.oocysts/gram faeces/group, 10 d.p.i. / Mean No. of Eimeria spp.oocysts/gram faeces/group, 12 d.p.i.: during feeding with tested product; for Mean No. of Eimeria spp.oocysts/gram faeces/group, 5 d.p.i.: oral infection with mixture of 5 Eimeria strains, ppm in feed as given per group; for Total number of oocysts: sum of 5-12 d.p.i. The text has this: A total of 100 one day old Habbared X breed chickens were used in the test. They were reared on un-medicated feed as one group during the first 3 days. After that they were allocated into 5 groups (20 each) in 5 separate (1 x 1 meter) pens. With the beginning of the day 8 of bird life, the composition to be tested was mixed into the feed of each group and was used for daily feeding. Fresh water was supplied ad-libetum. The test groups were: [table] The birds were kept on medicated feed for totally […]. […] Eimeria acervulina, E. maxima, E. necatrix, E. tenella and E. brunetti. Fresh fecal droplets were collected daily from the 4th day post experimental infection until day 13 post infection. Mean number of oocyst per gram […] for each group were calculated using the Mc-Master technique according to Soulsby (1984).

[4] abbreviates: 6 d.p.i., during feeding with tested product, ppm in feed as given per group.
Where [5] appears, read: 7 d.p.i., during feeding with tested product.
Setting [6] is: 8 d.p.i., during feeding with tested product.
The mark [7] stands for this setting: 9 d.p.i., during feeding with tested product.
Where [8] appears, read: 10 d.p.i., during feeding with tested product.
Setting [9] is: 11 d.p.i., during feeding with tested product.
Where [10] appears, read: 12 d.p.i., during feeding with tested product.
Where [11] appears, read: 13 d.p.i., during feeding with tested product.

In the case of `Cc1nc(C)c(Cl)c(O)c1Cl` [Clopidol], the “Mean No. of Eimeria spp.oocysts/gram faeces/group, 6 d.p.i.” value is given as 2 oocysts/gram faeces/group (number per thousand oocysts) in the test with Eimeria spp.oocysts [1] (setting [4]) and 8 oocysts/gram faeces/group (number per thousand oocysts) with Eimeria spp.oocysts [2] (setting [4]). The “Mean No. of Eimeria spp.oocysts/gram faeces/group, 7 d.p.i.” value is 900 oocysts/gram faeces/group (number per thousand oocysts) with Eimeria spp.oocysts [1] (setting [5]) and 9600 oocysts/gram faeces/group (number per thousand oocysts) in the test on Eimeria spp.oocysts [2] (setting [5]). Moreover, the results for the “Mean No. of Eimeria spp.oocysts/gram faeces/group, 8 d.p.i.” value in the test on Eimeria spp.oocysts [1] (setting [6]) and in the test on Eimeria spp.oocysts [2] (setting [6]) were 1300 oocysts/gram faeces/group (number per thousand oocysts) and 1872 oocysts/gram faeces/group (number per thousand oocysts), respectively. In addition, the figures for the “Mean No. of Eimeria spp.oocysts/gram faeces/group, 9 d.p.i.” value in the test on Eimeria spp.oocysts [1] (setting [7]) and with Eimeria spp.oocysts [2] (setting [7]) were 980 oocysts/gram faeces/group (number per thousand oocysts) and 3900 oocysts/gram faeces/group (number per thousand oocysts), respectively. For the same compound, the “Mean No. of Eimeria spp.oocysts/gram faeces/group, 10 d.p.i.” value with Eimeria spp.oocysts [1] (setting [8]) is recorded as 1500 oocysts/gram faeces/group (number per thousand oocysts); in the test on Eimeria spp.oocysts [2] (setting [8]), 420 oocysts/gram faeces/group (number per thousand oocysts). Also, the entries for the “Mean No. of Eimeria spp.oocysts/gram faeces/group, 11 d.p.i.” value in the test on Eimeria spp.oocysts [1] (setting [9]) and in the test on Eimeria spp.oocysts [2] (setting [9]) were 200 oocysts/gram faeces/group (number per thousand oocysts) and 14 oocysts/gram faeces/group (number per thousand oocysts), respectively. Also, the “Mean No. of Eimeria spp.oocysts/gram faeces/group, 12 d.p.i.” value in the test with Eimeria spp.oocysts [1] (setting [10]) is reported as 200 oocysts/gram faeces/group (number per thousand oocysts); in the test on Eimeria spp.oocysts [2] (setting [10]), 53 oocysts/gram faeces/group (number per thousand oocysts). In addition, the “Mean No. of Eimeria spp.oocysts/gram faeces/group, 13 d.p.i.” value with Eimeria spp.oocysts [1] (setting [11]) is 130 oocysts/gram faeces/group (number per thousand oocysts); in the test with Eimeria spp.oocysts [2] (setting [11]), 250 oocysts/gram faeces/group (number per thousand oocysts). Moreover, the results for the “Total number of oocysts” value in the test with Eimeria spp.oocysts [1] (sum of 6-13 d.p.i.) and with Eimeria spp.oocysts [2] (sum of 6-13 d.p.i.) were 5212 oocysts/gram faeces/group (number per thousand oocysts) and 16117 oocysts/gram faeces/group (number per thousand oocysts), respectively.

On to `CN[C@@H]1[C@H](O[C@H]2[C@H](O[C@H]3[C@H](O)[C@@H](O)[C@H](NC(=N)N)[C@@H](O)[C@@H]3NC(=N)N)O[C@@H](C)[C@]2(O)CO)O[C@@H](CO)[C@H](O)[C@H]1O` [dihydro-streptomycin, dihydrostreptomycin], for which, in the test on Eimeria spp.oocysts [3], the “Mean No. of Eimeria spp.oocysts/gram faeces/group, 5 d.p.i.” value was 0.0 oocysts/gram faeces/group (number per thousand oocysts); the “Mean No. of Eimeria spp.oocysts/gram faeces/group, 6 d.p.i.” value is on record as 38 oocysts/gram faeces/group (number per thousand oocysts); the “Mean No. of Eimeria spp.oocysts/gram faeces/group, 7 d.p.i.” value is 710 oocysts/gram faeces/group (number per thousand oocysts); the “Mean No. of Eimeria spp.oocysts/gram faeces/group, 8 d.p.i.” value was 138 oocysts/gram faeces/group (number per thousand oocysts). For the same compound, in the test with Eimeria spp.oocysts [3], the “Mean No. of Eimeria spp.oocysts/gram faeces/group, 9 d.p.i.” value was 138 oocysts/gram faeces/group (number per thousand oocysts); the “Mean No. of Eimeria spp.oocysts/gram faeces/group, 10 d.p.i.” value is recorded as 0 oocysts/gram faeces/group (number per thousand oocysts); the “Total number of oocysts” value is 956 oocysts/gram faeces/group (number per thousand oocysts).

In the case of `Nc1nc2ncc(CNc3ccc(C(=O)N[C@@H](CCC(=O)O)C(=O)O)cc3)nc2c(=O)[nH]1` [folic acid], in the test on Eimeria spp.oocysts [3], the “Mean No. of Eimeria spp.oocysts/gram faeces/group, 5 d.p.i.” value is given as 0 oocysts/gram faeces/group (number per thousand oocysts); the “Mean No. of Eimeria spp.oocysts/gram faeces/group, 6 d.p.i.” value was 22 oocysts/gram faeces/group (number per thousand oocysts); the “Mean No. of Eimeria spp.oocysts/gram faeces/group, 7 d.p.i.” value is 251 oocysts/gram faeces/group (number per thousand oocysts); the “Mean No. of Eimeria spp.oocysts/gram faeces/group, 8 d.p.i.” value was 310 oocysts/gram faeces/group (number per thousand oocysts). In the test on Eimeria spp.oocysts [3], the “Mean No. of Eimeria spp.oocysts/gram faeces/group, 9 d.p.i.” value is given as 220 oocysts/gram faeces/group (number per thousand oocysts); the “Mean No. of Eimeria spp.oocysts/gram faeces/group, 10 d.p.i.” value is on record as 3 oocysts/gram faeces/group (number per thousand oocysts); the “Mean No. of Eimeria spp.oocysts/gram faeces/group, 12 d.p.i.” value is reported as 0 oocysts/gram faeces/group (number per thousand oocysts); the “Total number of oocysts” value is 806 oocysts/gram faeces/group (number per thousand oocysts).

On to `NC(N)=Nc1nc(CSCCC(N)=NS(N)(=O)=O)cs1` [Famo-tidine, Famotidine], for which, in the test on Eimeria spp.oocysts [3], the “Mean No. of Eimeria spp.oocysts/gram faeces/group, 5 d.p.i.” value is on record as 0.0 oocysts/gram faeces/group (number per thousand oocysts); the “Mean No. of Eimeria spp.oocysts/gram faeces/group, 6 d.p.i.” value is reported as 0.0 oocysts/gram faeces/group (number per thousand oocysts); the “Mean No. of Eimeria spp.oocysts/gram faeces/group, 7 d.p.i.” value is recorded as 160 oocysts/gram faeces/group (number per thousand oocysts); the “Mean No. of Eimeria spp.oocysts/gram faeces/group, 8 d.p.i.” value is listed as 280 oocysts/gram faeces/group (number per thousand oocysts). In addition, in the test with Eimeria spp.oocysts [3], the “Mean No. of Eimeria spp.oocysts/gram faeces/group, 9 d.p.i.” value is reported as 460 oocysts/gram faeces/group (number per thousand oocysts); the “Mean No. of Eimeria spp.oocysts/gram faeces/group, 10 d.p.i.” value is listed as 10 oocysts/gram faeces/group (number per thousand oocysts); the “Mean No. of Eimeria spp.oocysts/gram faeces/group, 12 d.p.i.” value was 0 oocysts/gram faeces/group (number per thousand oocysts); the “Total number of oocysts” value is reported as 910 oocysts/gram faeces/group (number per thousand oocysts).

The values above are taken from patent EP1210950B1, “Composition against Coccidiosis” (New Pharma Research Sweden AB, priority 2000, dated 2002).
